For data set [1] the following is noted: cited from earlier work.
The test system of data set [2] is human phosphodiesterase III (PDE III). Description: PDE III inhibition. The format is biochemical. The note with it: more potent than anagrelide. An excerpt: In early volunteer trials, the most frequently reported adverse effects AEs other than headache were palpitations, postural dizziness and nausea. During patient studies, the most frequently reported drug-related AEs were headache, palpitations, oedema/fluid retention, nausea/vomiting, diarrhea, dizziness and abdominal pain. These effects are all likely to arise from the secondary, cardiovascular pharmacology associated with anagrelide resulting from its inhibitory effects on human phosphodiesterase III (PDE III). […] Inhibition of myocardial PDE III leads to positive inotropy (increasing of the force of contractions of the heart), increased chronotropy (increase in heart rate), and peripheral vasodilatation. Such cardiovascular manifestations of this inhibition are typically seen with the classical positive inotropes, milrinone and enoximone, and exploited in the short-term acute treatment of congestive heart failure. However, in the treatment of a so-called silent disease (i.e., asymptomatic) such as ET, the cardiovascular side-effects of palpitations and tachycardia associated with anagrelide limit its utility and a significant proportion of patients—reportedly between 25 and 50%—fail to tolerate the drug during long term treatment.

Data set [3] in a line: Pharmacokinetics and exposure in humans. Format: in vivo, human. The note with it: typical exposures, greater than anagrelide. The text has this:
The PDE III inhibitory properties of anagrelide are quite distinct from its platelet lowering anti-megakaryocytic effects. Indeed studies have shown no correlation between potency as a PDE III inhibitor and anti-megakaryocytic effects for anagrelide and its principal pharmacologically active metabolite, 3-hydroxyanagrelide (3-OH anagrelide or 3-HA, formerly known as SPD604 or BCH24426). […] Anagrelide's active metabolite, 3-HA, is present in vivo in amounts greatly exceeding those of the parent drug with typical exposures being 2-3 fold greater. Thus by implication 3-OH anagrelide is likely to be a major contributor to the pharmacological actions of the drug.
In addition to the unwanted cardiovascular effects associated with PDE III inhibition, the consequent elevation of cAMP can result in an anti-aggregatory effect. While initially this property may appear to be beneficial in essential thrombocythemia patients predisposed to greater thrombotic risk, such anti-platelet effects, in excess, could have haemorrhagic consequences and on balance may not be desirable. […]

The test system of data set [4] is TPO-induced megakaryocytopoiesis. The note with it: cited from earlier work.
Data set [5] deals with human phosphodiesterase III (PDE III). The note with it: cited from earlier work.
The test system of data set [6] is erythroid or myelomonocytic differentiation. The conditions noted are these: stimulated by erythropoietin or granulocyte-macrophage colony-stimulating factor; cited from earlier work.

pIC50: −log10 of the molar value. A value given as a limit tells only on which side of the number the result lay.

What is called half-life is the time in which the quantity being followed falls by half. For `O=C1NC2=Nc3ccc(Cl)c(Cl)c3CN2C1O` (stereo not drawn) [3-hydroxyanagrelide], in data set [1] (typical), the half-life is 2.5 h. The “potency as PDE III inhibitor relative to anagrelide” value in data set [2] is “over 40 fold”. For the same compound, the “exposure in vivo relative to parent drug” value in data set [3] is 2-3 fold. Besides, the “potency in inhibition of megakaryocytopoiesis relative to parent drug” value in data set [4] (compared with anagrelide) is listed as “no more potent than the parent drug”.

Usually pIC50 stands for the IC50 on a negative log10 scale, so that one unit is a factor of ten. With `O=C1CN2Cc3c(ccc(Cl)c3Cl)N=C2N1` [Anagrelide, 6,7-dichloro-1,5-dihydroimidazo[2,1-b]-quinazolin-2(3H)-one], the pIC50 in data set [5] was approximately 7.54; in data set [4] (estimated, in vitro human megakaryocytopoiesis, read-out: IC50 for inhibition of TPO-induced megakaryocytopoiesis), approximately 7.59. Besides, in data set [1] (in vivo), the first pass effect is more than 50%. The “effect on erythroid or myelomonocytic differentiation” value in data set [6] was “does not affect”.

For `Cc1[nH]c(=O)c(C#N)cc1-c1ccncc1` [milrinone], the pIC50 in data set [5] is 6.46 to 6.77.

(Values after patent US20110071174A1, “SUBSTITUTED QUINAZOLINES” (Shire LLC, priority 2008, published 2011).)
